For assay [1], the target named is T1, K^b sol (Mus musculus, UniProt P01901).
T1 sequence (P01901 22-305 limits assumed): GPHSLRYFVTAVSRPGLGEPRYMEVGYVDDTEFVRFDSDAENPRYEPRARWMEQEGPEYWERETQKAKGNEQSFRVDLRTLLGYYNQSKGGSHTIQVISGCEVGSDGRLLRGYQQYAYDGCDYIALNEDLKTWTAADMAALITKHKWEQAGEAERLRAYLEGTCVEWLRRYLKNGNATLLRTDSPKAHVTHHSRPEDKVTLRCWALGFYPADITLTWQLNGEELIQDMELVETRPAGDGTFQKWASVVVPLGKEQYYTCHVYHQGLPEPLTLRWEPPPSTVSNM
T1 sequence (P01887 21-119 partner): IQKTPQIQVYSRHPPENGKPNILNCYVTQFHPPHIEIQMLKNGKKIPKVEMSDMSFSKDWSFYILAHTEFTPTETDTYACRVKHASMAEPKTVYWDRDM
Briefly: biochemical. The following applies: read-out: dissociation rate constant.

The test system of assay [2] is B3/CD8 T-cell hybridoma. Briefly: Antigen presentation assay: K^b/β2 Drosophila cells cocultured with T-cell hybridoma B3/CD8, IL-2 by CTLL 3H thymidine incorporation. It is filed as cell-based, murine. The following applies: Drosophila cells transfected with K^b/β2; peptide added to medium or protein osmotically loaded. As to the method: Osmotic loading of SC2 and 3T3 cells with ovalbumin protein was carried out as described by Moore, et al., Cell 54: 777-785 (1988). The assay procedure is as follows. In a 96-well dish, 1×10^5 Drosophila cells (with or without peptide/protein loaded) or 3T3 cells were cocultured with 1×10^5 B3/CD8 T-cell hybridoma cells in 200 μl of RPMI media supplemented with 10 fetal bovine serum. After 24 hours of incubation, 100 μl of the supernatant from these cultures was added to 100 μl of RPMI containing 5,000 CTLL cells. The cells were cocultured for 24 hours at 37° C. when 1 μCi of ^3 H thymidine (Amersham) was added. After a further incubation of 15 hours at 37° C., the incorporation of radiolabel into the CTLL cells was determined by scintillation counting.
Assays conducted with murine MHC also verified that the insect cells are capable of loading peptide onto the Class I molecules. Cells expressing as few as 200-500 MHC molecules containing a particular antigen can be detected by a T-cell. […] Upon antigenic stimulation, B3/CD8 produces IL-2, measured by ^3 H thymidine incorporation in IL-2-dependenT-cell line CTLL (Gillis, et al., J. Immunol. 120: 2027 91978)). Thus, by measuring the amount of IL-2 produced, one can assay for T-cell recognition. […]
Background: Dividing cells build labelled thymidine or BrdU into new DNA.

Regarding `CC(C)C[C@H](NC(=O)CNC(=O)[C@H](CCC(N)=O)NC(=O)[C@H](Cc1ccc(O)cc1)NC(=O)[C@@H](NC(=O)[C@H](Cc1ccc(O)cc1)NC(=O)CNC(=O)[C@@H](N)CCCNC(=N)N)C(C)C)C(=O)O` [[^125 I]VSV-8], the koff in assay [1] was found to be 0.00032 s⁻¹.

B1: ovalbumin (protein, UniProt P01012 2-386, looked up)
Ovalbumin: GSIGAASMEFCFDVFKELKVHHANENIFYCPIAIMSALAMVYLGAKDSTRTQINKVVRFDKLPGFGDSIEAQCGTSVNVHSSLRDILNQITKPNDVYSFSLASRLYAEERYPILPEYLQCVKELYRGGLEPINFQTAADQARELINSWVESQTNGIIRNVLQPSSVDSQTAMVLVNAIVFKGLWEKAFKDEDTQAMPFRVTEQESKPVQMMYQIGLFRVASMASEKMKILELPFASGTMSMLVLLPDEVSGLEQLESIINFEKLTEWTSSNVMEERKIKVYLPRMKMEEKYNLTSVLMAMGITDVFSSSANLSGISSAESLKISQAVHAAHAEINEAGREVVGSAEAGVDAASVSEEFRADHPFLFCIKHIATNAVLFFGRCVSP
notes: ovalbumin (Sigma Chem. Co.) osmotically loaded into the cells
For the molecule B1, in assay [2], the “T-cell recognition (IL-2 production by B3/CD8)” value is on record as “no recognition occurred”.

For the origin of these results see patent publication US6255073A (priority 1998, dated 2001).
